Test results from ChEMBL document CHEMBL5143665, “Discovery and preclinical evaluations of WX-0593, a novel ALK inhibitor targeting crizotinib-resistant mutations” (Bioorg Med Chem Lett, 2022).

Key:
[1] = Oral bioavailability in mouse at 10 mg/kg; format: ADME, organism-based; settings: in vivo
[2] = AUC (0 to last) in mouse at 10 mg/kg, po; format: ADME, organism-based; design: time 0 - last, dose 10 mg/kg, route po; settings: in vivo
[3] = Volume of distribution at steady state in mouse at 1 mg/kg, iv; format: ADME, organism-based; settings: in vivo, read-out: Vdss
[4] = Cmax in mouse at 10 mg/kg, po; format: ADME, organism-based; design: dose 10 mg/kg, route po; settings: in vivo
[5] = Clearance in mouse at 1 mg/kg, iv; format: ADME, organism-based; settings: in vivo
[6] = Half-life in mouse at 1 mg/kg, iv; format: ADME, organism-based; settings: in vivo
KARPAS-299 = test: cells; settings: Homo sapiens
Description: Antiproliferative activity against human KARPAS-299 cells harbouring wild type ALK assessed as reduction in cell viability by Celltitre-Glo luminescent assay

BaF3 [7] = test: cells; settings: Mus musculus
Description: Antiproliferative activity against mouse BaF3 cells harbouring ALK wild type assessed as reduction in cell viability by Celltitre-Glo luminescent assay

BaF3 [8] = test: cells; settings: Mus musculus; remark: listed apart in the source
Description: Antiproliferative activity against mouse BaF3 cells harbouring ALK L1196M mutant assessed as reduction in cell viability by Celltitre-Glo luminescent assay

BaF3 [9] = test: cells; settings: Mus musculus; remark: listed apart in the source
Description: Antiproliferative activity against mouse BaF3 cells harbouring ALK C1156Y mutant assessed as reduction in cell viability by Celltitre-Glo luminescent assay

[10] = Clearance in Balb/c nude mouse at 1 mg/kg, iv; format: ADME, organism-based; settings: in vivo

bioavailability [1] [%]	AUC(0-t) [2] [ng·h/mL]	Vd [3] [L/kg]	Cmax [4] [ng/mL]	clearance [5] [mL/min/kg]	half-life [6] [h]	IC50 (KARPAS-299) [nM]	IC50 (BaF3 [7]) [nM]	IC50 (BaF3 [8]) [nM]	IC50 (BaF3 [9]) [nM]	Compound	clearance [10] [mL/min/kg]
18.5	1630	1.3	977	20.1	3.6	77				COc1cc(N2CCC3(CCNCC3)CC2)ccc1Nc1ncc(Cl)c(Nc2ccccc2P(C)(C)=O)n1	
						87	10	12	15	COc1cc(N2CCC3(CCN(C)CC3)CC2)c(Cl)cc1Nc1ncc(Cl)c(Nc2ccccc2P(C)(C)=O)n1	
1.2	27.7	3.1	28.7	69	1.1	126				COc1cc(N2CCC3(CNC3)C2)ccc1Nc1ncc(Cl)c(Nc2ccccc2P(C)(C)=O)n1	
						62				COc1cc(N2CCC3(CCN(C)CC3)CC2)c(C)cc1Nc1ncc(Cl)c(Nc2ccccc2P(C)(C)=O)n1	
						20	8	18	17	COc1cc(N2CCC3(CCN(C)CC3)CC2)ccc1Nc1ncc(Cl)c(Nc2ccc(F)cc2P(C)(C)=O)n1	

Compound	bioavailability [1] [%]	AUC(0-t) [2] [ng·h/mL]	Vd [3] [L/kg]	Cmax [4] [ng/mL]	clearance [5] [mL/min/kg]	half-life [6] [h]	IC50 (KARPAS-299) [nM]	IC50 (BaF3 [7]) [nM]	IC50 (BaF3 [8]) [nM]	IC50 (BaF3 [9]) [nM]	clearance [10] [mL/min/kg]
COc1cc(N2CCC3(CCN(C)CC3)CC2)ccc1Nc1ncc(Cl)c(Nc2ccccc2P(C)(C)=S)n1							30	5	8	12	61
